The results in this text go back to ChEMBL document CHEMBL4610024, “The ceramide analogue N-(1-hydroxy-3-morpholino-1-phenylpropan-2-yl)decanamide induces large lipid droplet accumulation and highlights the effect of LAMP-2 deficiency on lipid droplet degradation” (Bioorg Med Chem Lett, 2020).

Assay [1] concerns the target T1, Lysosome-associated membrane glycoprotein 2 (Mus musculus) (UniProt P17047).
T1 sequence (whole entry): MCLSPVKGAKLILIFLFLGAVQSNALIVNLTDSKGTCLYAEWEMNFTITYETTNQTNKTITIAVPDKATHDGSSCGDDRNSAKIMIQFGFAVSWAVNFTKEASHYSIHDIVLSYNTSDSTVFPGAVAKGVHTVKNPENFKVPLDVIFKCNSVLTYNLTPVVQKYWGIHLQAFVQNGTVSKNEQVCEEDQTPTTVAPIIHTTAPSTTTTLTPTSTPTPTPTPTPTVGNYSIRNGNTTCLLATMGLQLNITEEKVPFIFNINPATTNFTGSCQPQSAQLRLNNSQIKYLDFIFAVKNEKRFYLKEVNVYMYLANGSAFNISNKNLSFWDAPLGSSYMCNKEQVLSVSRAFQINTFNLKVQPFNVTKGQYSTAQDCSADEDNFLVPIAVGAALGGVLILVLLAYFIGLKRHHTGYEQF
As to the kind of experiment: Induction of LAMP2-mediated lipid droplet enlargement in mouse L cells at 40 uM measured after 17 hrs by LipiDye staining based assay. It counts as cell-based. The conditions noted are these: L929.

Assay [2] relates to L929. As to the kind of experiment: Induction of large autophagosome formation in CRISPR/Cas9-mediated LAMP2 knocked out mouse L cells assessed as decrease in multilamellar bodies layers at 40 uM measured after 17 hrs by transmission electron microscopy analysis. It counts as functional, cell-based.
Assay [3] deals with L929. As to the kind of experiment: Induction of lipid droplet degradation in CRISPR/Cas9-mediated LAMP2 knocked out mouse L cells at 40 uM measured after 17 hrs by LipiDye staining based assay. Type of assay: functional, cell-based.
The target in assay [4] is T1, Lysosome-associated membrane glycoprotein 2 (Mus musculus). As to the kind of experiment: Induction of LAMP2-mediated autophagy in mouse L cells assessed as increase in LC3 puncta at 40 uM measured after 17 hrs by Hoechst 33342 staining based assay. It counts as cell-based. The conditions noted are these: L929.
For assay [5], the system named is L929. As to the kind of experiment: Induction of large autophagosome formation in CRISPR/Cas9-mediated LAMP2 knocked out mouse L cells assessed as loosened multilamellar bodies at 40 uM measured after 17 hrs by transmission electron microscopy analysis. It counts as functional, cell-based.
Assay [6] has as its system L929. As to the kind of experiment: Induction of large autophagosome formation in CRISPR/Cas9-mediated LAMP2 knocked out mouse L cells assessed as accumulation of abnormal multilamellar bodies at 40 uM measured after 17 hrs by transmission electron microscopy analysis. It counts as functional, cell-based.
Assay [7] relates to L929. As to the kind of experiment: Induction of large autophagosome formation in CRISPR/Cas9-mediated LAMP2 knocked out mouse L cells assessed as degradation of multilamellar bodies at 40 uM measured after 17 hrs by transmission electron microscopy analysis. Type of assay: functional, cell-based.
The subject of assay [8] is L929. As to the kind of experiment: Induction of autophagy in CRISPR/Cas9-mediated LAMP2 knocked out mouse L cells assessed as formation of LC3 puncta rim around large autophagosome at 40 uM measured after 17 hrs by Hoechst 33342 staining based assay. Type of assay: functional, cell-based.
Assay [9] has as its system L929. As to the kind of experiment: Induction of autophagy in CRISPR/Cas9-mediated LAMP2 knocked out mouse L cells assessed as formation of LC3 puncta rim in other part of cell at 40 uM measured after 17 hrs by Hoechst 33342 staining based assay. Type of assay: functional.
Assay [10] has as its target T1, Lysosome-associated membrane glycoprotein 2 (Mus musculus). As to the kind of experiment: Induction of LAMP2-mediated lipid droplet degradation in mouse L cells assessed as increase in length of long axis of lipid droplet at 40 uM measured after 17 hrs by transmission electron microscopy analysis. The conditions noted are these: L929. It counts as cell-based.
The subject of assay [11] is L929. As to the kind of experiment: Induction of autophagy in CRISPR/Cas9-mediated LAMP2 knocked out mouse L cells assessed as increase in […] puncta at 40 uM measured after 17 hrs by Hoechst 33342 staining based assay. It counts as functional, cell-based.
For assay [12], the system named is L929. As to the kind of experiment: Induction of lipid droplet degradation in CRISPR/Cas9-mediated LAMP2 knocked out mouse L cells assessed as decrease in number of lipid droplet with long axis exceeding 1 um at 40 uM measured after 17 hrs by transmission electron microscopy analysis. Type of assay: functional, cell-based.

Molecules are shown by their SMILES. Activity calls are given as the source filed them. The calls are words filed in the database; no cut-off is given here.

Regarding `CCCCCCCCCC(=O)NC(CN1CCOCC1)C(O)c1ccccc1` (configuration not stated), the outcome (in assay [1]; in the assay on L929 [2]; in assay [4]; in the assay with L929 [5]; with L929 [6]; in the assay on L929 [7]) was Active. The outcome (with L929 [8]; in [10]; with L929 [11]) was Active. For the same compound, the result in the assay on L929 [3], with L929 [9] and with L929 [12] was inactive.
